Assay results: patent US20110110940A1, “Methods for Enhancing the Efficacy of Vascular Disrupting Agents” (OXIGENE, INC., priority 2008, published 2011)

Tested on: GFP+ bone marrow cells in the viable tumor rim of LLC tumors
Experiment: Homing/invasion of GFP+ bone marrow cells (CEPs) to the viable tumor rim and incorporation into CD31+ tumor vasculature, confocal microscopy of LLC tumor sections
Assay type: in vivo, mice
Conditions: 3 days after treatment
Source text: Integrin ∘4β1 (VLA4) promotes the homing of circulating cells to the α4β1 ligand binding (VCAM) expressed at the tumor site (Jin et al. 2006. J Clin Invest 116:652-662). […] We determined whether α4β1 integrin contributes to CEP and possibly other types of bone-marrow pro-angiogenic cell invasion and homing to the viable tumor rim after VDA treatment. To this end, green fluorescent protein (GFP)positive bone marrow cells obtained from syngeneic UBI/GFP/BL6 donor mice (The Jackson Laboratory, Bar Harbor, Me.) were transplanted into lethally irradiated C57Bl/6 recipient mice (as described in Theise, et al. 2000. Hepatology 31:235-240). Three weeks later, mice were subcutaneously (s.c.) implanted with 0.5×10^6 Lewis Lung Carcinoma (LLC) cells (ATCC, Manassas, Va.).
When tumors reached 500 mm^3, mice were treated with an integrin α4β1 specific blocking antibody (Jin 2006), CA1P, or a combination of the two agents. After 3 days, tumor volumes were measured, mice were sacrificed and tumors were removed for the evaluation of necrosis (FIG. 1A) and incorporation of bone marrow cells to the tumor vasculature (FIG. 1B). […] FIG. 1C provides tumor volumes measured three days after treatment and normalized to untreated control tumors. *: 0.05>p>0.01; **: p<0.01. Tumor size was assessed with Vernier calipers by using the formula width^2×length×0.5. […]

Compound: COc1cc(/C=C\c2ccc(OC)c(OP(=O)(O)O)c2OP(=O)(O)O)cc(OC)c1OC [CA1P, combretastatin A-1 diphosphate]
- invasion/homing of GFP+ cells (bone marrow cells) in the viable tumor rim (FIG. 1B): massive invasion of GFP^+ cells
- incorporation of GFP+ cells into blood vessels (colocalization of GFP+ and CD31+ cells, FIG. 1B) (CD31 staining): some of which were found to incorporate into blood vessels
